Test results from ChEMBL document CHEMBL1130309, “Syntheses and anticancer activity of ribonucleoside analogues containing thio-substituted five-membered heterocyclic base” (Bioorg Med Chem Lett, 1997).

Tests used:
SNB-19 [1] = test: Compound was evaluated in vitro against NCI CNS cancer cell line SNB19; format: functional, cell-based; conditions: Homo sapiens
SNB-19 [2] = test: Compound was evaluated in vitro against NCI CNS cancer cell line SNB19; Not active; format: functional, cell-based, Homo sapiens

SMILES | IC50 (SNB-19 [1]) [nM] | IC50 (SNB-19 [2])
Nc1nn(C2O[C@H](CO)[C@@H](O)[C@H]2O)c(=S)s1 (some centres not stated) | 39.4 | –
Nc1nn([C@@H]2O[C@H](COCc3ccccc3)[C@@H](OCc3ccccc3)[C@H]2OCc2ccccc2)c(=S)s1 | – | Not Active
